Legend:
Type in all cases: biochemical
Kdr = biological target: T1, Kdr (Homo sapiens, UniProt P35968); test: Z'-Lyte FRET kinase assay (Invitrogen), Kdr; conditions: read-out: IC50, activity toward kinase Kdr
T1 construct: purchased Invitrogen (assay run by Invitrogen)

Fak = biological target: T2, Fak (Homo sapiens, UniProt Q05397); test: AlphaScreen kinase assay, Fak; conditions: read-out: IC50, activity toward kinase Fak
T2 construct: P1358.pFastBacHtb FAK S411-Q686-X; His6 with pFastBacHTb leader (TEV site) (N); made in house; host or cells: Sf9 (baculovirus)

Abl = biological target: T3, Abl (Homo sapiens, UniProt P00519); test: AlphaScreen kinase assay, Abl; conditions: read-out: activity toward kinase Abl, IC50
T3 construct: P1121. pET-SPEC BI-PTP Abl G227-V515-X; His6 (N); made in house; host or cells: E. coli (PTP1B co-expressed)
T3 sequence (P00519 with tags, fused parts or gaps): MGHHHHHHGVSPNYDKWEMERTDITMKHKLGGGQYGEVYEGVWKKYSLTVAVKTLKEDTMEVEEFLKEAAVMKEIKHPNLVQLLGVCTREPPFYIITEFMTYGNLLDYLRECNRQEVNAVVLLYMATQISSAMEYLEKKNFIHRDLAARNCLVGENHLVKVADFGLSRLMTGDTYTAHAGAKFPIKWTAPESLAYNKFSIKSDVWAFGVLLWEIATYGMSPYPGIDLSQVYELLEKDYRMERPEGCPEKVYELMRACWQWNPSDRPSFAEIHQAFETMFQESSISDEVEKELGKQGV
Summary of the method: (§1)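 Eight concentrations per compound (1:3 serial dilution of 20 mM DMSO stock) were tested. Read-out: AlphaScreen signal from phospho-antibody acceptor and streptavidin donor beads bound to biotinylated peptide substrate, reduced on kinase inhibition.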

Flt1 = biological target: T4, Flt1 (Homo sapiens, UniProt P17948); test: AlphaScreen kinase assay, Flt1; conditions: read-out: IC50, activity toward kinase Flt1
T4 construct: P1826.pETN6 BI-PTP FLT1 M799-D1165-X WT; His6 (N); made in house; host or cells: E. coli (PTP1B co-expressed)
T4 sequence (P17948 with tags, fused parts or gaps): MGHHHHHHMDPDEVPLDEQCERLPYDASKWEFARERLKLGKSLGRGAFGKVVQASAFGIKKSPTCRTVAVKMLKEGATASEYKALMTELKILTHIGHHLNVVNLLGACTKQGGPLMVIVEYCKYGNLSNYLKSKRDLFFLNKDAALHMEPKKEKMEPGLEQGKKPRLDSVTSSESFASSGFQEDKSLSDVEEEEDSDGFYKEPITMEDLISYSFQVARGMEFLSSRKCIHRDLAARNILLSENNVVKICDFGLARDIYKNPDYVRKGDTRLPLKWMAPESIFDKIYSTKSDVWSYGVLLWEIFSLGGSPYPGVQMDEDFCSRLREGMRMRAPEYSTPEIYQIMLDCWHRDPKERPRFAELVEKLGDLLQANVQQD

Ret = biological target: T5, Ret (Homo sapiens, UniProt P07949); test: AlphaScreen kinase assay, Ret; conditions: read-out: IC50, activity toward kinase Ret
T5 construct: P1378.pET-SF BI-PTP RET H661-R1012 HIS; made in house
T5 sequence (P07949 with tags, fused parts or gaps): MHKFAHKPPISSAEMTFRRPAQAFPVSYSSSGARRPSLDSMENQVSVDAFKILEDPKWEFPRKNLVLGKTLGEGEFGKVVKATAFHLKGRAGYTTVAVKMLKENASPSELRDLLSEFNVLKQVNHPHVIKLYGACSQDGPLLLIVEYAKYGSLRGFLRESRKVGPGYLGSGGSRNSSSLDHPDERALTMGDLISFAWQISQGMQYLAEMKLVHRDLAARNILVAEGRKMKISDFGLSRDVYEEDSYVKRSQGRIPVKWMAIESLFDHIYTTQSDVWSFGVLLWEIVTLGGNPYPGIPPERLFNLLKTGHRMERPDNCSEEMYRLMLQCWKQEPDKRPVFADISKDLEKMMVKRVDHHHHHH

Kit = biological target: T6, Kit (Homo sapiens, UniProt P10721); test: AlphaScreen kinase assay, Kit; conditions: read-out: IC50, activity toward kinase Kit
T6 construct: P1332.N6 BI PTP KIT M552-K948-X COD; His6 (N); made in house; host or cells: E. coli (PTP1B co-expressed)

Flt4 = biological target: T7, Flt4 (Homo sapiens, UniProt P35916); test: AlphaScreen kinase assay, Flt4; conditions: read-out: IC50, activity toward kinase Flt4
T7 construct: purchased ProQinase GmbH (Freiburg, Germany)
Excerpt: AlphaScreen assay was used to screen additional kinases. The assay is similarly dependent on the phosphorylation of a peptide substrate. In this assay, an antibody that recognizes phosphorylated substrate is bound to an acceptor bead. The peptide substrate is attached to biotin, which binds to a donor head that contains streptavidin. Thus phosphorylated substrate is bound by antibody and streptavidin, bringing the donor and acceptor heads into close proximity when kinase is not inhibited. The donor produces singlet oxygen which results in emission from the acceptor when they are in close proximity. Conversely, when kinase is inhibited, the donor and acceptor beads are not associated and the emission from the acceptor is reduced.
AlphaScreen assays were done using compounds dissolved in DMSO to a concentration of 20 mM. The compounds were diluted accordingly to the desired final concentrations in each sample well, using 1:3 serial dilution for a total of 8 concentration points.

B-Raf V600E = biological target: T8, B-Raf V600E (Homo sapiens, UniProt P15056, V600E); test: AlphaScreen kinase assay, B-Raf V600E; conditions: read-out: IC50, activity toward kinase B-Raf V600E
T8 construct: P4254. pFastBacBD-CDC37 BRAF D437-K722-X, V600E; His6 with pFastBac HT leader (TEV site) (N); made in house; host or cells: Sf9 (baculovirus; chaperone CDC37 co-expressed)

Src = biological target: T9, Src (Homo sapiens, UniProt P12931); test: AlphaScreen kinase assay, Src; conditions: read-out: IC50, activity toward kinase Src
T9 construct: P1144. pET-N6 BI-PTP SRC V86-L536-X; made in house

FGFR1 = biological target: T10, FGFR1 (Homo sapiens, UniProt P11362, C488A/C584S); test: AlphaScreen kinase assay, FGFR1; conditions: read-out: IC50, activity toward kinase FGFR
T10 construct: P1351.pET N6 BI-PTP FGFR A458-E765-X C488A, C584S; made in house; host or cells: E. coli (PTP1B co-expressed)

Jnk3 = biological target: T11, Jnk3 (Homo sapiens, UniProt P53779); test: AlphaScreen kinase assay, Jnk3; conditions: read-out: IC50, activity toward kinase Jnk3
T11 construct: purchased Upstate Biotechnology

Jnk1 = biological target: T12, Jnk1 (Homo sapiens, UniProt P45983); test: AlphaScreen kinase assay, Jnk1; conditions: read-out: IC50, activity toward kinase Jnk1
T12 construct: purchased Upstate Biotechnology

B-Raf = biological target: T13, B-Raf (Homo sapiens, UniProt P15056); test: AlphaScreen kinase assay, B-Raf; conditions: read-out: IC50, activity toward kinase B-Raf
T13 construct: purchased Upstate Biotechnology

Fms = biological target: T14, Fms (Homo sapiens, UniProt P07333); test: AlphaScreen kinase assay, Fms; conditions: read-out: IC50, activity toward kinase Fms
T14 construct: purchased Upstate Biotechnology

Pyk2 = biological target: T15, Pyk2 (Homo sapiens, UniProt Q14289); test: AlphaScreen kinase assay, Pyk2; conditions: read-out: IC50, activity toward kinase Pyk2
T15 construct: purchased Upstate Biotechnology

c-Raf-1 = biological target: T16, c-Raf-1 (Homo sapiens, UniProt P04049); test: AlphaScreen kinase assay, c-Raf-1; conditions: read-out: IC50, activity toward kinase c-Raf-1
T16 construct: purchased Upstate Biotechnology

Zap70 = biological target: T17, Zap70 (Homo sapiens, UniProt P43403); test: AlphaScreen kinase assay, Zap70; conditions: read-out: IC50, activity toward kinase Zap70
T17 construct: P1868.pFastBac1 ZAP70 D327-G606 HIS, WT; His7 (HHHHHHH) (C); made in house
T17 sequence (P43403 with tags, fused parts or gaps): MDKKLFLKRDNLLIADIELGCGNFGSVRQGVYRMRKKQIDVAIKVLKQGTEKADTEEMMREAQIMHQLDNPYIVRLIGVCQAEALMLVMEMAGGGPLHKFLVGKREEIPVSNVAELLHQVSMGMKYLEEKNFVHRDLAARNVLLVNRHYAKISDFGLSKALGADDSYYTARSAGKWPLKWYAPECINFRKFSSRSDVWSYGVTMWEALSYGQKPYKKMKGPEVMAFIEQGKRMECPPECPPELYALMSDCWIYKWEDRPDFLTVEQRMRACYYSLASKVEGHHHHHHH
Summary of the method: as §1

Jnk2 = biological target: T18, Jnk2 (Homo sapiens, UniProt P45984); test: AlphaScreen kinase assay, Jnk2; conditions: read-out: IC50, activity toward kinase Jnk2
T18 construct: purchased Roche Protein Expression Group (Indianapolis, IN)
Summary of the method: as §1

MAP4K4 = MAP4K4 (Homo sapiens, UniProt O95819); test: AlphaScreen kinase assay, MAP4K4; conditions: read-out: IC50, activity toward kinase MAP4K4
Procedure: AlphaScreen assays were done using compounds dissolved in DMSO to a concentration of 20 mM. The compounds were diluted accordingly to the desired final concentrations in each sample well, using 1:3 serial dilution for a total of 8 concentration points. Plates were prepared such that each kinase reaction is 20 μl in 1× kinase buffer, 5% DMSO and 10 μM ATP. After incubation of the kinase reaction for 1 hour at room temperature, 5 μl of donor beads in stop buffer (50 mM EDTA in 1× kinase buffer) was added, the sample was mixed and incubated for 20 minutes at room temperature before adding 5 μl of acceptor beads in stop buffer. The samples were incubated for 60 minutes at room temperature and the signal per well was read on AlphaQuest reader.

Measured: IC50

T7 sequence (P35916 25-1363): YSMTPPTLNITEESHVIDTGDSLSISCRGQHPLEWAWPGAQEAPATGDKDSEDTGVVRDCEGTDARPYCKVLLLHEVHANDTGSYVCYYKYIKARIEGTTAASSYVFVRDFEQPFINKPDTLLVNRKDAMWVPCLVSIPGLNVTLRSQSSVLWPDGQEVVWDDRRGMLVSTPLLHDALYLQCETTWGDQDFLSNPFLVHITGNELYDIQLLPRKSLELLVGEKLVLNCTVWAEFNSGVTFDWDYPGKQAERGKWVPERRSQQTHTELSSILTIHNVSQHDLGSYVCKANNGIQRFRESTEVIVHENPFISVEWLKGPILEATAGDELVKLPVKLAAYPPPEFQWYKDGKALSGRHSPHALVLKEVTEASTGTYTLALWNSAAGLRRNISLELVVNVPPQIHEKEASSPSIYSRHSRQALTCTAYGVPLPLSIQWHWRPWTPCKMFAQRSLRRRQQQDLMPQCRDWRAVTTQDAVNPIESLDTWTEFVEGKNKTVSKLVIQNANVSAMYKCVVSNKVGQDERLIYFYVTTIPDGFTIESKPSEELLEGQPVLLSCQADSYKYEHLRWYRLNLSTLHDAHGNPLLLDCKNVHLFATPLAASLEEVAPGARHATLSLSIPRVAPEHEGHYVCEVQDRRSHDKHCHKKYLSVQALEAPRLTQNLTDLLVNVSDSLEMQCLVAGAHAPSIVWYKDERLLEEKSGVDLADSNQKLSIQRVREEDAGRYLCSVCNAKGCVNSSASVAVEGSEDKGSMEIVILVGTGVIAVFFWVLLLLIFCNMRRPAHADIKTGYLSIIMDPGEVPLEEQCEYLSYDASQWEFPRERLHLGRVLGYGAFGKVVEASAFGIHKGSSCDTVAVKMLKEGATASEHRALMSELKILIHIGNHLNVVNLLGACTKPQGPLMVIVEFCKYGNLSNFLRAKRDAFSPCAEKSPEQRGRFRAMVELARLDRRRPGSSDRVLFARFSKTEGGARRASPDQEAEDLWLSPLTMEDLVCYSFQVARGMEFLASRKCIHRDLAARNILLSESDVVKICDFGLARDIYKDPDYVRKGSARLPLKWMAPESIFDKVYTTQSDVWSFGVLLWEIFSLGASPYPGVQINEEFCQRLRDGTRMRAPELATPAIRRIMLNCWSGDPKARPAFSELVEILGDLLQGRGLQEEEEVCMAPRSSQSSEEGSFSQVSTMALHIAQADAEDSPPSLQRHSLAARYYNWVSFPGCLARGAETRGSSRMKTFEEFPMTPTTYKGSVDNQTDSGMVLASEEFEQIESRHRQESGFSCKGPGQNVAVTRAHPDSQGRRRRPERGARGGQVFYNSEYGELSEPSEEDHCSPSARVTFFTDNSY
T6 sequence (P10721 with tags, fused parts or gaps): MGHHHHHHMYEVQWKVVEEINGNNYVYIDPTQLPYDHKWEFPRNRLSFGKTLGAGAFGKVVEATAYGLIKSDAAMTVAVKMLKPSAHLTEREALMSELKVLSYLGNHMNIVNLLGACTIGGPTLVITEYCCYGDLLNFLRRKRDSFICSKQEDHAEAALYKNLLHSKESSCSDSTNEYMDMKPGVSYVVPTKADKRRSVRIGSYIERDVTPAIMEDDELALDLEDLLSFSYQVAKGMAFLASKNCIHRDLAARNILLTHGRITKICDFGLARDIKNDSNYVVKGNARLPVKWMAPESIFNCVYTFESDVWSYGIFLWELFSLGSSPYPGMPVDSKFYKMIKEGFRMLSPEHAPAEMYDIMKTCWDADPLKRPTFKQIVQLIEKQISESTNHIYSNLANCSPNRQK
T1 sequence (P35968 20-1356): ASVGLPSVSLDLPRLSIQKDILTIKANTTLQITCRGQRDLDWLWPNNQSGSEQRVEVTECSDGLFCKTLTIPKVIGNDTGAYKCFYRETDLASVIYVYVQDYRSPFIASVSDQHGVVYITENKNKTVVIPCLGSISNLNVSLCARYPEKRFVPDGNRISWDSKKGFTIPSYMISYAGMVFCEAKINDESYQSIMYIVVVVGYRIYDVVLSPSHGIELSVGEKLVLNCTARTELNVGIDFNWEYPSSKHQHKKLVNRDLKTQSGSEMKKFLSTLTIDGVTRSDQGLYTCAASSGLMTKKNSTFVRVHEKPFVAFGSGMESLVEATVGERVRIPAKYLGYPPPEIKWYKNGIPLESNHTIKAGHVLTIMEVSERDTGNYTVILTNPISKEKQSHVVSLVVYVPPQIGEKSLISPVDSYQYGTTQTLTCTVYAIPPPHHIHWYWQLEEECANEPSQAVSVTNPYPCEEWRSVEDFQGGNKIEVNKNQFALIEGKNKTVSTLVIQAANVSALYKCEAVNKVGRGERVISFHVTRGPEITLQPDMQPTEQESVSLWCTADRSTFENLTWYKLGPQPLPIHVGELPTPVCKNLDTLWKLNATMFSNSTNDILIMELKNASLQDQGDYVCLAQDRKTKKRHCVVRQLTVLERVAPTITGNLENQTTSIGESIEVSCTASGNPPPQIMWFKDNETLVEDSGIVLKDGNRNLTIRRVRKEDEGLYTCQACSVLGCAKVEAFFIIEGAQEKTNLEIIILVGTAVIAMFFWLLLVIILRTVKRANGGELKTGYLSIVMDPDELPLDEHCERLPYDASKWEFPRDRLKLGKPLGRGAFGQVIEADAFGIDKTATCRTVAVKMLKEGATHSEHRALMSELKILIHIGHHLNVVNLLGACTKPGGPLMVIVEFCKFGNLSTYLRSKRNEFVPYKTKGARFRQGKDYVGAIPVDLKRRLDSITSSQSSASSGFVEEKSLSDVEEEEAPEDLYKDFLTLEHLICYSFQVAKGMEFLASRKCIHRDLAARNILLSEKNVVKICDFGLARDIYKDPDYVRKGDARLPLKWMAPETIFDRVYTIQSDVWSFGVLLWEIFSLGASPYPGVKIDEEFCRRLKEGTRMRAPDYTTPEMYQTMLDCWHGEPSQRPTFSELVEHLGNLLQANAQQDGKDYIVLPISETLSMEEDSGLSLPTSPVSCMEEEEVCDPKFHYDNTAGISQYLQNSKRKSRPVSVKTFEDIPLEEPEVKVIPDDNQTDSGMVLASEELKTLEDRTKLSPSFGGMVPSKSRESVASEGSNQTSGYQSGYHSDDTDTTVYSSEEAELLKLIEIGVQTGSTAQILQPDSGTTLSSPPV
T8 sequence (P15056 with tags, fused parts or gaps V600E): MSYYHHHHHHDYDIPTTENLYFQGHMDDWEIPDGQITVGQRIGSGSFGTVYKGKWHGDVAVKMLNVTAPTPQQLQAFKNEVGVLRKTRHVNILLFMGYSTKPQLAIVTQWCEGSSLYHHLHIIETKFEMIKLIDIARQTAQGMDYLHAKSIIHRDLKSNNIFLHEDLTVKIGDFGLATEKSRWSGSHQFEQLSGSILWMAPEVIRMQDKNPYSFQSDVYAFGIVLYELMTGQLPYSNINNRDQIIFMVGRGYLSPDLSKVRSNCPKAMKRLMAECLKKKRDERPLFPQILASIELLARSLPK
T10 sequence (P11362 458-765 C488A/C584S): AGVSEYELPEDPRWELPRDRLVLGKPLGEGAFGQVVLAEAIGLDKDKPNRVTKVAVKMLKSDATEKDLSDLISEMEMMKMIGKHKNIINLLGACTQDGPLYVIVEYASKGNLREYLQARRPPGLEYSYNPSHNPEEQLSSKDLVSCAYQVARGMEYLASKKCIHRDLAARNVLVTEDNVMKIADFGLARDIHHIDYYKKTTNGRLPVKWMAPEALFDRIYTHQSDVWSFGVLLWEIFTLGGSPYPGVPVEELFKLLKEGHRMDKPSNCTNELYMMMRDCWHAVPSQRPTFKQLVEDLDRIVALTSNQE
T9 sequence (P12931 with tags, fused parts or gaps): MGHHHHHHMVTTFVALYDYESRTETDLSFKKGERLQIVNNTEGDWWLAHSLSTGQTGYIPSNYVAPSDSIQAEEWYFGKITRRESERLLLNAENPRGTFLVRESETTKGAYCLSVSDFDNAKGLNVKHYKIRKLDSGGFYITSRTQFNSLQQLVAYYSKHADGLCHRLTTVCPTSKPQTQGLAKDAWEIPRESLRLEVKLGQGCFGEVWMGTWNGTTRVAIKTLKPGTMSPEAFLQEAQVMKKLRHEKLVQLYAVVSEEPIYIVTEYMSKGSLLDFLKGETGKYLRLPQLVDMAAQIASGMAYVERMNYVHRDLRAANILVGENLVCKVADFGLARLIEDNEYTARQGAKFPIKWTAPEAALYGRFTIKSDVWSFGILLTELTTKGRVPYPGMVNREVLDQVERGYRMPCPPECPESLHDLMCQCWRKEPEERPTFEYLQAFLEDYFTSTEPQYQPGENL
T11 sequence (P53779 whole entry): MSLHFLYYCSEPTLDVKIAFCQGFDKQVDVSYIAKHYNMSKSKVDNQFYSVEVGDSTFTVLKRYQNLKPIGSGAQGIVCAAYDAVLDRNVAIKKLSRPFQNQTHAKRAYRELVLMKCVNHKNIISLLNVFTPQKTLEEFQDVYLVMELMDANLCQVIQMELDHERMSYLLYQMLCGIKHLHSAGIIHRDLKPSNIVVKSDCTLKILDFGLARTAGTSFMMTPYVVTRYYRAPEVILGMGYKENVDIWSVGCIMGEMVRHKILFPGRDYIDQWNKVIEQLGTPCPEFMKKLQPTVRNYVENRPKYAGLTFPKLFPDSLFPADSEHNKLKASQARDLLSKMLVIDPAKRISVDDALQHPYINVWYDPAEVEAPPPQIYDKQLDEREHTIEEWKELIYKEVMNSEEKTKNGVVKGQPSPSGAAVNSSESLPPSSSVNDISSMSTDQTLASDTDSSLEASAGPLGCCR
T12 sequence (P45983 whole entry): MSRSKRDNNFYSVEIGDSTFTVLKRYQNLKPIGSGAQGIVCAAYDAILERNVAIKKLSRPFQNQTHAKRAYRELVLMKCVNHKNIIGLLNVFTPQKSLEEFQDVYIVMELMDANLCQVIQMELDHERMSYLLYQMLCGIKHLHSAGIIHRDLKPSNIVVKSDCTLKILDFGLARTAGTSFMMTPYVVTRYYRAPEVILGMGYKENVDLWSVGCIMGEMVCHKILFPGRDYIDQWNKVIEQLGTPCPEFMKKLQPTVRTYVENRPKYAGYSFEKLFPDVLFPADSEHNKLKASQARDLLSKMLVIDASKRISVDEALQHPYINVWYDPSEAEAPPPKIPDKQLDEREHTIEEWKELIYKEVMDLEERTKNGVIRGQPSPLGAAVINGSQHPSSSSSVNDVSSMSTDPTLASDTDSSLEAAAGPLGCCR

Cc1cc(C(=O)c2c[nH]c3ncc(-c4cccc(C(N)=O)c4)cc23)n(C)n1 [Compound P-0224]
≤ 10 µM: Kdr | Fak | Abl | Flt1 | Ret | Kit | Flt4

Cc1cc(C(=O)c2c[nH]c3ncc(-c4ccc(C(N)=O)cc4)cc23)n(C)n1 [Compound P-0762]
≤ 10 µM: Kdr | Abl | B-Raf V600E | Ret | Kit | Flt4

O=C(c1cccc(F)c1)c1c[nH]c2nccc(-c3cc(F)cc(F)c3)c12 [Compound P-0316]
≤ 10 µM: Kdr | Abl | Src | Ret | Kit | FGFR1 | Flt4

NC(=O)c1ccc(-c2cnc3[nH]cc(C(=O)c4ccccc4F)c3c2)cc1 [Compound P-0691]
not listed: Src | B-Raf | Fms | Pyk2 | c-Raf-1 | Zap70 | Jnk2 | MAP4K4
≤ 10 µM: all other assays above

O=C(c1cc(O)ccc1F)c1c[nH]c2ncc(-c3cccnc3)cc12 [Compound P-0559]
not listed: Fak | Zap70 | Jnk2 | MAP4K4
≤ 10 µM: all other assays above

O=C(c1cccc(Cl)c1Cl)c1c[nH]c2ncc(-c3cccnc3)cc12 [Compound P-0751]
≤ 10 µM: Kdr | Abl | B-Raf V600E | Flt1 | Ret | Kit | FGFR1 | Flt4

Nc1cccc(-c2cnc3[nH]cc(C(=O)c4ccc(Cl)cc4)c3c2)c1 [Compound P-0738]
≤ 10 µM: Kdr | Abl | Jnk3 | Ret | Kit | Flt4

NC(=O)c1ccc(-c2cnc3[nH]cc(C(=O)c4cccc(O)c4)c3c2)cc1 [Compound P-0645]
≤ 10 µM: Kdr | Abl | B-Raf V600E | Jnk3 | Src | Ret | Kit | FGFR1 | Flt4

COc1cccc(C(=O)C2C=Nc3nccc(-c4cc(F)cc(F)c4)c32)c1 (stereo not drawn) [Compound P-0453]
≤ 10 µM: Abl | B-Raf V600E | Src | Ret | Kit | FGFR1 | Flt4

Nc1cccc(-c2cnc3[nH]cc(C(=O)c4ccc5nsnc5c4)c3c2)c1 [Compound P-0703]
≤ 10 µM: Kdr | Jnk3 | Zap70 | Ret | Kit | Flt4

O=C(c1cccc(F)c1F)c1c[nH]c2nccc(-c3cc(F)cc(F)c3)c12 [Compound P-0205]
≤ 10 µM: B-Raf V600E | Zap70 | Ret | Kit | FGFR1 | Flt4

COc1cc(O)cc(Cc2c[nH]c3ncc(-c4ccsc4)cc23)c1 [Compound P-0594]
≤ 10 µM: B-Raf | Abl | Jnk2 | B-Raf V600E | Jnk3 | Ret | Kit | FGFR1 | Flt4

O=C(c1ccc2ccccc2c1)c1c[nH]c2ncccc12 [Compound P-0495]
≤ 10 µM: Kdr | Zap70 | Ret | MAP4K4 | Kit | FGFR1 | Flt4

COc1ccc(F)c(C(=O)c2c[nH]c3ncc(-c4cccs4)cc23)c1 [Compound P-0656]
≤ 10 µM: Abl | B-Raf V600E | Fms | Jnk3 | Flt1 | Ret | c-Raf-1 | Kit | FGFR1 | Flt4
